# Reference: US6787564B2, “Optically active clausenamides, process of the preparation thereof, pharmaceutical composition containing the same and their medical use” (Institute of Materia Medica, Chinese Academy of Medical …, priority 2002, dated 2004)
# Columns and labels:
# [1] = system: dentate gyrus granule cells; assay: basal synaptic transmission / LTP in dentate gyrus of hippocampus in anesthetized rats (population spike amplitude); format: in vivo; conditions: icv
# Description: Drugs or vehicle injection were delivered via cannula in the lateral cerebral ventricle at final concentration of 2×10^−6 mol/L. The population spike (PS) amplitude was employed as an indication of the level of excitation of the granular cell population in the dentate gyrus. To obtain this measurement, an evoked response was generated in the dentate gyrus granule cell layer by stimulating the pp at low freguency (0.033 Hz) with. single square wave pulses of 0.15 ms duration The LTP formation must accord the following creteria: The PS amplitude increased is over 30% and this high PS amplitude can persist for 40 min.
# A β 25-35 treated rats = assay: Morris water maze, A β 25-35 induced impairment of memory; format: in vivo; conditions: for initial heading angle on the 3th day (in words): (−),(+) clausenamide 8 and 40 mg.kg^−1, piracetam 400 mg·kg^−1; for initial heading angle on the 3th day (in words) / latency for finding the platform, 3th to 5th day: vs A β group; for latency for finding the platform, 3th to 5th day: (−),(+) clausenamide 8 and 40 mg·kg^−1, piracetam 400 mg.kg^−1
# Description: Pathological features of Alzheimer's disease (AD) include extensive neuronal loss and the presence of numerous neurofibrillary tangles and senile plaques in the brain. The senile plaques contain amyloid fibrils derived from a 39-43 amino acids peptide referred to as β-amyloid or A β which can produce neurotoxicity. A β 25-35 poccesses the similar neurotoxicity and ability of self-aggregation as A β 1-42. Administrated aggregated A β 25-35 into rat's lateral cerebral ventricle induced memory impairment in Morris water maze.
# With increasing of training days, the initial heading angle became small. On the 3th day, the initial heading angle of A β group was larger than control. […] (see Tab.3)
# There are four strategies for finding platform in Morris water maze: random, circle, taxis and line. In the beginning of training the search strategies for finding target is mainly circle and random, with the increasing of training, the percentage of the two strategies declined gradually, Beginning from the 3th day, declining speed in control and (−) clausenamide group was faster than A β,(+) clausenamide and piracetam groups.
# rats = assay: mossy fiber sprouting in fascia dentata and hippocampal CA3 region; format: in vivo; conditions: 8 and 40 mg·kg^−1 orally daily for 10 days; adult rat
# Description: 2. […] This is morphological basis for levoclausenamide to incnease synaptic transmission (see FIGS. 1 and 2).
# BDNF = BDNF protein expression in cortical neurons and hippocampal pyramide cells; format: in vivo, rats; conditions: 8, 40 mg·kg^−1 orally daily for 10 days
# [2] = system: dentate gyrus of hippocampus; assay: induction of LTP in hippocampal of rat (population spike amplitude); format: in vivo, SD rats; conditions: I.C.V.; means ± SD
# Description: Adult male SD rats were anesthetized to maintain a surgical level. A stainless steel cannula-recording electrode was placed in DG (dentate gyrus) of hippocampus using a stereotaxic instrument. The combination of cannula-recording electrode was constructed by insulating the outside of the cannula, except at the tip and top. In the top noninsulated area, a stainless steel wire was wrapped around the cannula and connected to the amplifier via an amphenol connector. The four pairs optically active clausenamides shown in table 9 was delivered by I.C.V. Responses were evoked via direct stimulation of the performant path (PP) using a stainless steel bipolar stimulating electrode. Constant current stimulation provided by a stimulator was delivered to the stimulating electrode through a Stimulus Isolation Unit.
# The stimulating electrode was adjusted until a characteristic EPSP was observed under constant current. The evoked responses were amplified on a series alternating current preamplifier, using a microcomputer, and then stored for off-line analysis using DataWave software. The current intensity that elicited a 50% maximal response in each animal was determined and used for all subsequent stimulation. To measure treatment effects, responses were evoked once every 30 sec throughout the entire experiment, and population spike amplitude(PSA) were calculated.
# [3] = system: β-AP (25-35)-treated rats; assay: one trial passive avoidance of β-AP (25-35)-treated rats; format: in vivo
# calpain = calpain activity in the cortical and hippocampal tissue; format: in vivo, rats; conditions: without HFS, Nimodipine 2 nmol, mean ± S.D., n = 5; for calpain activity, Cortical tissue: control 1.5 ± 0.2; for calpain activity, Hippocampal tissue: control 1.7 ± 0.5
# Description: (§1) The rats were anaesthetized with urethane carbonate.
# calcineurin = calcineurin activity in the cortical and hippocampal tissue; conditions: without HFS; Nimodipine 2 nmol; mean ± S.D., n = 5; control 7.8 ± 0.6
# Description: The rats were anaesthetized with urethane carbonate. The recording and stimulating electrodes were made from Teflon coated stainless steel wires. The bipolar stimulating electrode was sterotaxically placed in the entorhinal cortex to stimulate the perforant path, and the evoked potential was extracellular recorded from the dentate gyrus granule cell layer of ipsilateral. The population spike (PS) is served as an indication of granule cell's excitation. Long term potentiation (LTP) was induced by a 200 Hz high frequency stimulation 5×single square wave pulses of 0.2 ms duration. The drug or vehicle (DMSO) were injected into lateral cerebral ventricle in a 5 μl volume over a 5 min period via a Hamilton syringe.
# mGlu receptor = assay: effect of mGlu antagonist on LTP in hippocampal DG in vivo; set-up: species or system rats
# Description: as §1
# 3. Glutamate, the most abundant excitatory neurotransmitter in the CNS, released from presynaptic site and activated a variety of postsynaptic receptor, and then potentiated synaptic transmission. mGlu R (metabotropic glutamate receptor) indirectly regulates signaling and activats various second messenger cascades.
# animals [4] = assay: nootropic action overall: step-down, step-through and water maze tests; format: in vivo; conditions: oral; Tab.4 to Tab.7
# Description: This invention used one trial avoidance task—step-down and step-through tests and water maze to compare the improving memorial effects of (±), (−) clausenamide.
# (§2) The drugs were given orally once to animals before experiment in step-down and step-through tests. The water maze test lasted for 5 days in succession. The results were expressed as latency and errors number.
# The effective dose of piracetam was 500 mg.kg^−1.
# [5] = system: animals with anisodine-induced memory impairment; assay: step-down test, memory impairment induced by anisodine; format: in vivo; conditions: 500 mg/kg oral once
# Description: as §2, with “This invention used one trial avoidance task—step-down and step-through tests and water maze to compare the improving memorial effects of (±), (−) clausenamide. The drugs” for “The drugs”
# animals [6] = assay: memory in water maze test; format: in vivo; conditions: 500 mg/kg
# Description: as §2, with “This invention used one trial avoidance task—step-down and step-through tests and water maze to compare the improving memorial effects of (±), (−) clausenamide. The drugs” for “The drugs”
# [7] = system: animals with anisodine-induced memory impairment; assay: step-through test, memory impairment induced by anisodine; format: in vivo; conditions: 500 mg/kg oral once
# Description: as §2, with “This invention used one trial avoidance task—step-down and step-through tests and water maze to compare the improving memorial effects of (±), (−) clausenamide. The drugs” for “The drugs”
# [8] = system: animals with anisodine-induced memory impairment; assay: memory impairment induced by anisodine in water maze test; format: in vivo; conditions: anisodine + drug 500 mg/kg
# Description: as §2, with “This invention used one trial avoidance task—step-down and step-through tests and water maze to compare the improving memorial effects of (±), (−) clausenamide. The drugs” for “The drugs”
# [9] = β-AP-treated + drug 8 mg/kg, n = 9
# [10] = β-AP-treated + drug 40 mg/kg, n = 9
# [11] = β-AP-treated + drug 400 mg/kg, n = 8
compound,measurement,setting,value
(+) clausenamide [reference compound],"PS % at 15′, in comparison with control (vehicle) group",[1]; 2×10^−6 mol/L,−2.7%
same,"PS % at 30′, in comparison with before drug",[1]; 2×10^−6 mol/L,−5.9%
same,"PS % at 30′, in comparison with control (vehicle) group",[1]; 2×10^−6 mol/L,−12.0%
same,"PS % at 45′, in comparison with before drug",[1]; 2×10^−6 mol/L,−12.9%
same,"PS % at 45′, in comparison with control (vehicle) group",[1]; 2×10^−6 mol/L,−20.0%
same,"PS % at 60′, in comparison with before drug",[1]; 2×10^−6 mol/L,−14.9%
same,"PS % at 60′, in comparison with control (vehicle) group",[1]; 2×10^−6 mol/L,−23.2%
same,PS amplitude 30′ after drug,"[1]; 2×10^−6 mol/L, control 108 ± 7",95 ± 9
same,PS amplitude 45′ after drug,"[1]; 2×10^−6 mol/L, control 110 ± 10",88 ± 15
same,PS amplitude 60′ after drug,"[1]; 2×10^−6 mol/L, control 112 ± 7",86 ± 18
same,PS amplitude 15′ after drug,"[1]; final concentration 2×10^−6 mol/L, control 110 ± 9",107 ± 8
same,initial heading angle on the 3th day (in words),A β 25-35 treated rats,showed no improving effects
same,"latency for finding the platform, 3th to 5th day",A β 25-35 treated rats,showed no effect
same,"initial heading angle, training day 1",A β 25-35 treated rats; A β 25-35 + drug at 8 mg/kg,99.4 ± 31.7
same,"initial heading angle, training day 2",A β 25-35 treated rats; A β 25-35 + drug at 8 mg/kg,93.5 ± 29.6
same,"initial heading angle, training day 3",A β 25-35 treated rats; A β 25-35 + drug at 8 mg/kg,82.1 ± 26.7
same,"initial heading angle, training day 4",A β 25-35 treated rats; A β 25-35 + drug at 8 mg/kg,70.2 ± 21.5
same,"initial heading angle, training day 5",A β 25-35 treated rats; A β 25-35 + drug at 8 mg/kg,59.2 ± 18.3
same,"initial heading angle, training day 1",A β 25-35 treated rats; A β 25-35 + drug at 40 mg/kg,112.4 ± 32.8
same,"initial heading angle, training day 2",A β 25-35 treated rats; A β 25-35 + drug at 40 mg/kg,102.5 ± 28.7
same,"initial heading angle, training day 3",A β 25-35 treated rats; A β 25-35 + drug at 40 mg/kg,84.2 ± 22.5
same,"initial heading angle, training day 4",A β 25-35 treated rats; A β 25-35 + drug at 40 mg/kg,83.1 ± 26.5
same,"initial heading angle, training day 5",A β 25-35 treated rats; A β 25-35 + drug at 40 mg/kg,65.4 ± 20.8
same,mossy fiber sprouting in the fascia dentate and stratum lucidum,rats,no significant effect
same,BDNF protein expression in the cortical neurons and pyramide cells in the hippocampus,BDNF,slightly increasing effect only at a dose of 40 mg·kg^−1
same,"PSA (%), 15 min",[2],90.6 ± 0.3%
same,"PSA (%), 30 min",[2],110.1 ± 13.1%
same,"PSA (%), 60 min",[2],106.4 ± 4.1%
same,"Number of error, Acquisition",[3]; [9],0.8 ± 0.38
same,"Number of error, Training",[3]; [9],3.3 ± 0.42
same,"Number of error, Acquisition",[3]; [10],1.1 ± 0.19
same,"Number of error, Training",[3]; [10],3.9 ± 2.3
NC(CCCP(=O)(O)O)C(=O)O (stereo not shown) [AP5],"calpain activity, Cortical tissue",calpain,1.6 ± 0.4 ΔA595nm/hr/mg protein
same,"calpain activity, Hippocampal tissue",calpain,1.6 ± 0.6 ΔA595nm/hr/mg protein
same,"calcineurin activity, Hippocampal tissue",calcineurin,8.1 ± 0.7 (μmol Pi)/hr/μ g protein
"CC(N)(C(=O)O)c1ccc(C(=O)O)cc1 (racemic) [(±) MCPG, (±)-α-methyl-4-carboxyphenylglycine]",induction of LTP induced by HFS and levoclausenamide,"mGlu receptor; 10 μmol, icv",inhibited the induction of LTP
same,established LTP,mGlu receptor; given 15 min after HFS or levoclausenamide,reversed the established LTP
COCCOC(=O)C1=C(C)NC(C)=C(C(=O)OC(C)C)C1c1cccc([N+](=O)[O-])c1 (stereo not shown) [Nimodipine],"calpain activity, Cortical tissue",calpain,1.7 ± 0.3 ΔA595nm/hr/mg protein
same,"calpain activity, Hippocampal tissue",calpain,1.8 ± 0.5 ΔA595nm/hr/mg protein
same,"calcineurin activity, Hippocampal tissue",calcineurin,7.7 ± 0.8 (μmol Pi)/hr/μ g protein
"NC(=O)CN1CCCC1=O [Piracetam, 2-oxo-1 pyrolidine acetamide]",initial heading angle on the 3th day (in words),A β 25-35 treated rats,showed no improving effects
same,"latency for finding the platform, 3th to 5th day",A β 25-35 treated rats,showed no effect
same,"initial heading angle, training day 1",A β 25-35 treated rats; A β 25-35 + drug at 400 mg/kg,92.5 ± 28.9
same,"initial heading angle, training day 2",A β 25-35 treated rats; A β 25-35 + drug at 400 mg/kg,87.3 ± 24.2
same,"initial heading angle, training day 3",A β 25-35 treated rats; A β 25-35 + drug at 400 mg/kg,74.6 ± 23.7
same,"initial heading angle, training day 4",A β 25-35 treated rats; A β 25-35 + drug at 400 mg/kg,62.5 ± 19.6
same,"initial heading angle, training day 5",A β 25-35 treated rats; A β 25-35 + drug at 400 mg/kg,44.5 ± 14.3
same,effective dose of piracetam (comparator),animals [4],500 mg/kg
same,"Error number, Step-down",[5]; 0.9% Nacl + anisodine 0.9 ± 1.0,0.7 ± 0.5
same,"Latencies, Step-down",[5]; 0.9% Nacl + anisodine 184 ± 105,180 ± 110 s
same,"Lalencies reaching platform, 3rd day",animals [6]; 0.9% Nacl 25.8 ± 18.4,18.6 ± 9.9 s
same,"Lalencies reaching platform, 4th day",animals [6]; 0.9% Nacl 26.1 ± 38.4,16.7 ± 16.3 s
same,"Lalencies reaching platform, Second day","animals [6]; N = 10, X ± S.D., 0.9% Nacl 32.4 ± 29.2",32.2 ± 22.6 s
same,"Latencies, Step-through",[7]; 0.9% Nacl + anisodine 24.4 ± 59,107 ± 110 s
same,"Error number, Step-through","[7]; N = 10, X ± SD, 0.9% Nacl + anisodine 12.7 ± 4.6",4.1 ± 3.2
same,Errors number,[8],23.5 ± 25.0
same,"Number of error, Acquisition",[3]; [11],1.6 ± 0.26
same,"Number of error, Training",[3]; [11],4.1 ± 1.14
